The values below come from PubChem BioAssay (NCI).

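These data come from cells grown in 96-well plates and exposed to compound for 48 hours at five concentrations. Definition used: TGI = concentration required for complete inhibition of growth.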

Assay in all cases: NCI tumour cell line growth inhibition, 48 h
In assay [1] the test system is CAKI-1 renal.
The test system of assay [2] is NCI-H226 lung.
Assay [3] relates to RPMI-8226 leukemia.
For assay [4], the system named is KM12 colon.
Assay [5] relates to SN12C renal.
Assay [6] concerns ACHN renal.
Assay [7] has as its system HL-60(TB) leukemia.
Assay [8] relates to NCI-H23 lung.
The test system of assay [9] is SW-620 colon.
The subject of assay [10] is SK-OV-3 ovarian.
The subject of assay [11] is EKVX NSCLC.
Assay [12] has as its system IGROV1 ovarian.

Turning to `NC(=O)C(=CNC(=S)Nc1cccc(C(F)(F)F)c1)C(N)=O`, the TGI in assay [1], in [2], in assay [3], in assay [4], in assay [5] and in assay [6] was greater than 100 µM in each case. The TGI in [7], in assay [8], in assay [9] and in assay [10] was greater than 100 µM throughout.
`COc1cc(C=O)cc(O)c1O`: the TGI in assay [11], in [2], in assay [3], in assay [12], in assay [4] and in [5] was greater than 100 µM each time. Moreover, the TGI in [6], in assay [7], in assay [8], in assay [9] and in assay [10] was greater than 100 µM in each case.
`CSc1c(C#N)c(S)[nH]c(=O)c1C#N`: the TGI in [1], in assay [11], in assay [2], in assay [3], in assay [12] and in assay [4] was greater than 100 µM throughout. Also, the TGI in assay [5], in assay [7], in assay [8], in [9] and in assay [10] was greater than 100 µM throughout.
Turning to `CN(C(=O)c1ccco1)C(=S)N1CCN(c2ccccn2)CC1`, the TGI in assay [1], in assay [2], in assay [3], in assay [12], in assay [4] and in [5] was greater than 100 µM each time. The TGI in assay [6], in assay [7], in assay [8], in assay [9] and in assay [10] was greater than 100 µM throughout.
With `c1ccc([P+](c2ccccc2)(c2ccccc2)C2c3ccccc3-c3ccccc32)cc1`, the TGI in assay [1] was determined as 69.1 µM; in assay [2], 5.94 µM; in [12] it was 13.6 µM; in [5] it was 7.29 µM; in [6], 7.79 µM; in assay [7], 3.92 µM. In addition, the TGI in assay [8] was determined as 5.38 µM; in assay [9], 16.2 µM; in [10], 4.33 µM.
For the molecule `CCCCOC(=O)c1cc(C(=CCC[C@H]2CC[C@@]3(C)[C@@H](CC[C@@H]4[C@@H]3CC[C@]3(C)[C@@H](C(C)CCCC(C)C)CC[C@@H]43)C2)c2cc(Cl)c(O)c(C(=O)OCCCC)c2)cc(Cl)c1O` (stereo partly drawn), the TGI in assay [1], in assay [11], in assay [2], in assay [3], in assay [12] and in assay [4] was greater than 50 µM in each case. The TGI in [5], in assay [7], in assay [8] and in assay [9] was greater than 50 µM in each case.
In the case of `c1ccc([P+](CCCCCC[P+](c2ccccc2)(c2ccccc2)c2ccccc2)(c2ccccc2)c2ccccc2)cc1`, the TGI in assay [1] is greater than 100 µM; in [11], greater than 100 µM; in [2] it was greater than 100 µM; in assay [12], 30.8 µM; in assay [4], 63.2 µM; in [5], greater than 100 µM. The TGI in assay [6] was greater than 100 µM; in [7], 67 µM; in [8] it was 69.6 µM; in [9], greater than 100 µM; in assay [10], greater than 100 µM.
Take `CCCN(CCC)C1=Nc2ccccc2-n2cnnc2C1`: the TGI in assay [11], in assay [2], in assay [3], in assay [12], in [4] and in assay [5] was greater than 100 µM in each case. Also, the TGI in [6], in [7], in assay [8] and in assay [9] was greater than 100 µM each time.
Take `COC(=O)C1=NN2c3ccccc3CN([C@@H](C)c3ccccc3)C(=O)[C@@H]2[C@H]1c1ccccc1`: the TGI in assay [1], in [11], in assay [2], in assay [4], in [5] and in [6] was greater than 100 µM in each case. Besides, the TGI in assay [7], in assay [8], in assay [9] and in [10] was greater than 100 µM in each case.
In the case of `COc1cc2c[n+](C)c3c(c2cc1OC)Cc1cc2c(cc1-3)OCO2`, the TGI in assay [1], in assay [11], in [2], in [3], in assay [12] and in assay [4] was greater than 100 µM throughout. For the same molecule, the TGI in [5], in [7], in assay [8], in assay [9] and in assay [10] was greater than 100 µM each time.
`COc1cc(C2c3c(ccc4ccccc34)C(=O)C3CCC(=O)N32)cc(OC)c1O` (stereo not drawn): the TGI in [11], in [2], in assay [3], in [12], in [4] and in [5] was greater than 25 µM in each case. The TGI in assay [6], in assay [7], in assay [8], in assay [9] and in assay [10] was greater than 25 µM in each case.
`O=C1c2ccccc2C(=O)c2c(NCCCN3CCOCC3)ccc(NCCCN3CCOCC3)c21`: the TGI in [1] turned out to be 32 µM; in assay [11], 46.6 µM; in [2] it was 31.5 µM; in [3], 42.8 µM; in [12] it was 29.4 µM; in [4], 20.5 µM. The TGI in assay [5] is 17.2 µM; in assay [6], 19.5 µM; in assay [7], greater than 100 µM; in [8] it was 17.6 µM; in [9], 28.1 µM.
As for `CCOC(=O)C(OP(=O)(OCC)OCC)C(F)(F)F` (stereo not drawn), the TGI in [11], in assay [2], in assay [3], in assay [4], in [5] and in assay [6] was greater than 100 µM throughout. Moreover, the TGI in assay [7], in assay [8] and in assay [10] was greater than 100 µM throughout.
In the case of `CCOC(=O)C(CCc1ncnc2c1ncn2Cc1ccccc1)(CCc1ncnc2c1ncn2Cc1ccccc1)C(=O)OCC`, the TGI in assay [1], in [11], in [2], in [3], in assay [12] and in assay [4] was greater than 100 µM each time. In addition, the TGI in [5], in assay [6], in [7], in assay [8] and in assay [9] was greater than 100 µM in each case.
With `Cc1ccc(-c2cc(-c3ccco3)c(C#N)c(=O)n2C2OC(CO)C(O)C(O)C2O)cc1` (stereo not drawn), the TGI in [11], in [2], in [3], in assay [12], in [4] and in assay [5] was greater than 100 µM throughout. Further, the TGI in assay [6] is greater than 100 µM; in assay [7], greater than 100 µM; in [8] it was greater than 100 µM; in assay [9] it was greater than 100 µM; in [10], 59.8 µM.
`O=C1c2ccccc2C(=O)N1CC(CN1C(=O)c2ccccc2C1=O)(C(=O)OCc1ccccc1)C(=O)OCc1ccccc1`: the TGI in assay [1], in assay [2], in [3], in [12], in [4] and in [5] was greater than 100 µM in each case. Also, the TGI in [7], in [8] and in assay [10] was greater than 100 µM in each case.
For the molecule `O=[N+]([O-])C(=C/c1cccs1)/C(=C\c1cccs1)[N+](=O)[O-]`, the TGI was 1.41 µM in [1]; greater than 32.4 µM in assay [11]; 9.84 µM in assay [2]; 1.14 µM in assay [3]; 13.4 µM in [4]; 2.68 µM in assay [6]. In addition, the TGI was 0.139 µM in assay [7], 3.52 µM in [8], 21.2 µM in assay [9] and 8.04 µM in [10].
Take `O=c1oc2ccc([N+](=O)[O-])cc2cc1Br`: the TGI in [1], in assay [11], in [2], in assay [3], in assay [12] and in assay [4] was greater than 100 µM each time. Besides, the TGI in assay [5], in assay [6], in assay [7], in assay [8] and in [9] was greater than 100 µM throughout.
Take `CN(C(=O)c1ccc(OCCCC(=O)O)c(Cl)c1Cl)C1CCCC1`: the TGI in assay [1], in [11], in [2], in assay [3], in assay [12] and in assay [4] was greater than 100 µM in each case. Besides, the TGI in [5], in assay [7], in assay [8], in assay [9] and in [10] was greater than 100 µM throughout.
